Measured values published in patent US11845714B2, “Process for producing taurine” (Vitaworks IP, LLC, priority 2014, dated 2023).

Settings: 25% aqueous ammonia at room temperature

NCCS(=O)(=O)O [Taurine, 2-aminoethanesulfonic acid]
solubility in 25% aqueous ammonia: 36 g in 100 g
